From patent US20100196995A1, “Systems and methods for maintaining the dominance and increasing the biomass production of nannochloropsis in an algae cultivation system” (priority 2009, published 2010)
Marks after values point to notes of the source that are not given here.

Experiments:
Format in all cases: cell-based
[1] = tested on: diatoms; experiment: Example Two: ozone skid tests on outdoor ponds, ozone disinfection of diatoms
Protocol: (§1) In the following examples, Nannochloropsis was grown in outdoor, open, three-square meter ponds in Vero Beach, Florida. The climate in Vero Beach is semitropical, with mild, cool winters and hot, humid summers. It is a challenging climate for keeping outdoor algal cultures stable and productive. The overnight warmth encourages predation by protozoa, rotifers, and crustaceans. The humidity allows the airborne transport of competing algae, and thus increases the rate of invasion.
(§2) An ozone skid was assembled on-site utilizing a dry air feed ozone generator capable of producing 10 g/h of ozone.
(§3) A small pump was connected to the system with the ozone added to the liquid recycle line via a Mazzei gas to liquid injector capable of flow rates between 13.2-28.35 1pm@pressures ranging from 15-25 psi. Tests were run on ponds D4 (3 m^2 surface area), MP1 (3 m^2 surface area), and 25A (25 m^2 surface area) with salinities ranging from 20-24 ppt using flow rates of 13.2 and 15.6 1pm@20 psi. The ozonator is equipped with a variable transformer that offers the ability to vary ozone dosage between 0-100%. Tests were run at ozone concentrations of 25%, 50%, 75%, and 100% at flow rates of 13.2 and 15.6 1pm.
(§4) Nannochloropsis was unaffected by ozone at these dosages.
(§5) Using the skid mounted system as an in-situ transfer treatment to inoculate new ponds was also tested with very favorable results. Both D4 (3 m^2) and MP1 (3 m^2) were filled with ozone treated inoculums from one of the larger ponds that had large amounts of clumps and decreasing productivity. The effect of this was that most of the clumps (>80%) were broken up and the grazers present inside of the clumps were destroyed as well as free grazers and diatoms in the solution with no effect on Nannochloropsis.

[2] = tested on: ciliated protozoa grazers; experiment: Example One: pond culture passed through ozone generator, effect on grazers; conditions: ozonator setting 50% (4.6 mg/L) or 100% (9.6 mg/L)
Protocol: as §1
(§6) Ozone was added to an algal cultivation system using a commercial ozone generator with accompanying liquid pump, venturi, and air dryer. The machine used was a small model capable of generating 10 grams of ozone per hour. The flow rate of liquid through the generator was about 16 liters per minute. At fifty percent (50%) of maximal ozone generation, the concentration of ozone in the liquid after one pass through the ozone generator was 4.6 mg/L, and at 100% was 9.6 mg/L.
(§7) Two three-square meter ponds were started by taking 500L of culture from a larger pond and passing it through the ozone generator once. One pond was started with the ozonator setting at 50%, the other pond was started with the ozonator setting at 100%. The original algal culture had numerous clumps of Nannochloropsis, cell debris, various diatoms, and some ciliated protozoa grazers.

[3] = tested on: Nannochloropsis; experiment: Exposure of Nannochloropsis cultures to extremely high (shock) levels of ozone; conditions: above 30 milligrams/liter ozone, exposure not prolonged
Text: At alternative step 135, if the level or amount of predators and/or invaders exceeds an actual or desired level, the ozone concentration of the algae cultivation system may be adjusted by applying an effective “shock” amount of ozone. The ozone concentration of the algae cultivation system may be adjusted via the inlet stream that feeds into the algae cultivation system. Applying an effective shock amount of ozone to the inlet stream may result in an initial ozone concentration of the inlet stream above 10 milligrams/liter, which feeds into the algae cultivation system. An unexpected result observed via the experiments described herein is that Nannochloropsis cultures exposed to extremely high levels of ozone (above 30 milligrams/liter) recover (i.e., the Nannochloropsis cultures were not killed), provided the exposure to the ozone is not prolonged. […] Note: steps 130 and 135 may be performed in alternating or rotating fashion, provided the ozone concentration is properly observed.

[4] = tested on: Nannochloropsis; experiment: Example Two: ozone skid tests on outdoor ponds D4, MP1, 25A, Nannochloropsis productivity and resistance
Protocol: as §1, §2, §3
Productivity results of the three pond systems run at the high concentrations are listed below:
as §4, §5

[5] = tested on: diatoms; experiment: Example One: pond culture passed through ozone generator, effect on diatoms; conditions: ozonator setting 50% (4.6 mg/L) or 100% (9.6 mg/L)
Protocol: as §1, §6, §7

[6] = tested on: grazers; experiment: Example Two: ozone skid tests on outdoor ponds, ozone disinfection of grazers
Protocol: as §1, §2, §3, §4, §5

[7] = tested on: Nannochloropsis; experiment: Example One: pond culture passed through ozone generator, effect on Nannochloropsis
Protocol: as §1, §6, §7
The two algal cultures were allowed to grow for two days without dilution, but with nutrient addition to see whether the ozone treatment changed the production of biomass and the subsequent stability of the cultures. After two days of batch growth, each pond was diluted one third per day and recirculated each day through the ozone generator for 30 minutes. During this time period about 500L, or one volume equivalent was treated. As before, one pond was passed through the machine at 50% setting and one at 100% setting.

[8] = 3 m^2 ponds D4 and MP1, concentrations of ozone tested
[9] = 25 m^2 pond 25A, side stream treated
[10] = in-situ transfer treatment of inoculums for D4 and MP1

**Q.** For `O=[O+][O-]` [Ozone, ozone], which “Effect of ozone exposure on diatoms present” value [1, 8] is on record?
**A.** adversely affected after exposure to ozone resulting in their elimination

**Q.** And the “Effect of ozone exposure on diatoms” value [1, 9]?
**A.** similarly affected

**Q.** And the “Free diatoms in the solution” value [1, 10]?
**A.** destroyed

**Q.** What about the “Grazers after one pass through the ozone generator” value [2] of the same molecule?
**A.** killed

**Q.** What about the “Outcome of Nannochloropsis cultures after extremely high levels of ozone” value [3] of the same molecule?
**A.** recover

**Q.** What about the “Effect of ozone on Nannochloropsis” value ([4]; 3 m^2 ponds D4 and MP1, at these dosages) of the same molecule?
**A.** unaffected

**Q.** And the “Clumping after exposure to ozone” value [4, 9]?
**A.** clumping did not become as dramatic of a problem

**Q.** And the Productivity ([4]; Pond 25A (25 m^2), Jul. 09, 2008, total 5950 mg O3, 5615 liters recycled)?
**A.** 16.1 g/m^2/day

**Q.** What about the Productivity ([4]; Pond 25A (25 m^2), Jul. 10, 2008, total 5950 mg O3, 5615 liters recycled) of the same molecule?
**A.** 4.6 g/m^2/day

**Q.** What about the Productivity ([4]; Pond 25A (25 m^2), Jul. 11, 2008, total 5950 mg O3, 5615 liters recycled, pond temperature reached 39° C.) of the same molecule?
**A.** −8.3* g/m^2/day

**Q.** What about the Productivity ([4]; Pond 25A (25 m^2), Jul. 12, 2008, total 5950 mg O3, 5615 liters recycled) of the same molecule?
**A.** 12.2 g/m^2/day

**Q.** What about the Productivity ([4]; Pond 25A (25 m^2), Jul. 13, 2008, total 5950 mg O3, 5615 liters recycled) of the same molecule?
**A.** 10.7 g/m^2/day

**Q.** And the Productivity ([4]; Pond 25A (25 m^2), Jul. 14, 2008, total 5950 mg O3, 5615 liters recycled)?
**A.** 8.0 g/m^2/day

**Q.** And the Productivity ([4]; Pond D4 (3 m^2), Jul. 09, 2008, total 500 mg O3, 470 liters recycled)?
**A.** 15.4 g/m^2/day

**Q.** What about the Productivity ([4]; Pond D4 (3 m^2), Jul. 10, 2008, total 500 mg O3, 470 liters recycled) of the same molecule?
**A.** 16.1 g/m^2/day

**Q.** And the Productivity ([4]; Pond D4 (3 m^2), Jul. 11, 2008, total 500 mg O3, 470 liters recycled)?
**A.** 16.0 g/m^2/day

**Q.** And the Productivity ([4]; Pond D4 (3 m^2), Jul. 12, 2008, total 500 mg O3, 470 liters recycled)?
**A.** 8.4 g/m^2/day

**Q.** And the Productivity ([4]; Pond D4 (3 m^2), Jul. 13, 2008, total 500 mg O3, 470 liters recycled)?
**A.** 12.2 g/m^2/day

**Q.** And the Productivity ([4]; Pond D4 (3 m^2), Jul. 14, 2008, total 500 mg O3, 470 liters recycled)?
**A.** 14.9 g/m^2/day

**Q.** And the Productivity ([4]; Pond MP1 (3 m^2), Jul. 09, 2008, total 500 mg O3, 470 liters recycled)?
**A.** 13.3 g/m^2/day

**Q.** What about the Productivity ([4]; Pond MP1 (3 m^2), Jul. 10, 2008, total 500 mg O3, 470 liters recycled) of the same molecule?
**A.** 17.2 g/m^2/day

**Q.** And the Productivity ([4]; Pond MP1 (3 m^2), Jul. 11, 2008, total 500 mg O3, 470 liters recycled)?
**A.** 16.9 g/m^2/day

**Q.** And the Productivity ([4]; Pond MP1 (3 m^2), Jul. 12, 2008, total 500 mg O3, 470 liters recycled)?
**A.** 9.0 g/m^2/day

**Q.** And the Productivity ([4]; Pond MP1 (3 m^2), Jul. 13, 2008, total 500 mg O3, 470 liters recycled)?
**A.** 16.0 g/m^2/day

**Q.** What about the Productivity ([4]; Pond MP1 (3 m^2), Jul. 14, 2008, total 500 mg O3, 470 liters recycled) of the same molecule?
**A.** 13.4 g/m^2/day

**Q.** What about the “Effect on Nannochloropsis” value [4, 10] of the same molecule?
**A.** no effect

**Q.** And the Clumps broken up ([4]; in-situ transfer treatment: D4 and MP1 filled with ozone treated inoculums from a larger pond with large amounts of clumps)?
**A.** > 80%

**Q.** And the “Clump formation after daily repeated exposure to ozone” value ([4]; small 3 m^2 ponds D4 and MP1)?
**A.** clumps did form in large numbers

**Q.** And the “Diatoms after one pass through the ozone generator” value [5]?
**A.** killed

**Q.** What about the “Effect of ozone exposure on grazers present” value [6, 8] of the same molecule?
**A.** adversely affected after exposure to ozone resulting in their elimination

**Q.** What about the “Effect of ozone exposure on grazers” value [6, 9] of the same molecule?
**A.** similarly affected

**Q.** What about the “Grazers inside of the clumps and free grazers in the solution” value [6, 10] of the same molecule?
**A.** destroyed

**Q.** What about the “Survival of Nannochloropsis after one pass through the ozone generator” value ([7]; 500L culture, one pass, ozonator setting 50% (4.6 mg/L) or 100% (9.6 mg/L)) of the same molecule?
**A.** only single cells of Nannochloropsis survived

**Q.** And the “Ill effects from the ozone on Nannochloropsis ponds” value ([7]; both ponds (50% and 100% setting), daily 30 minute recirculation for three days)?
**A.** no ill effects

**Q.** And the “Production of biomass above that of a control pond” value ([7]; both ponds (50% and 100% setting), recirculated 30 minutes per day through ozone generator for three days, diluted one third per day)?
**A.** 20%

**Q.** What about the “Clumps of Nannochloropsis after one pass through the ozone generator” value ([7]; one pass, ozonator setting 50% (4.6 mg/L) or 100% (9.6 mg/L)) of the same molecule?
**A.** completely broken up
